Test results published in patent publication US20200024278A1, “COMPOSITION COMPRISING ANTIBIOTIC COMPOUND AND AN HETEROCYCLIC COMPOUND AND THEIR USE IN PREVENTING OR TREATING BACTERIAL INFECTIONS” (MUTABILIS, priority 2016, published 2020).
Read-outs that look alike come from different tables or passages of the source.

Assays:
Experiment in all cases: MIC, broth microdilution (CLSI), substance alone or ATB combined with compound at 4 or 8 μg/mL
[1] = system: ABA UFR160; assay type: cell-based, A. baumannii; details: for MIC: Acinetobacter baumannii
Summary of the method: (§1)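 Each strain received 5·10^5 CFU/mL of log-phase cells in ca-MHB over DMSO-spotted compound or compound-antibiotic combinations. After 16-20 h at 35° C, growth was scored visually.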

[2] = system: ABA UFR151; assay type: cell-based, A. baumannii; details: for MIC: Acinetobacter baumannii
Summary of the method: as §1

[3] = system: ECL P99; assay type: cell-based, E. cloacae; details: ECL P99; for MIC: Enterobacter cloacae
Summary of the method: as §1

[4] = system: SPN 49619; assay type: cell-based, S. pneumoniae; details: SPN 49619; for MIC ATB combined with compound / MIC ATB combined with Example compound: compound @8 μg/ml; for MIC: Streptococcus pneumoniae
Summary of the method: as §1

[5] = system: KPN BAA-1898; assay type: cell-based, K. pneumoniae; details: KPN BAA-1898; for MIC: Klebsiella pneumoniae, BAA1898
Summary of the method: as §1

[6] = system: KPN UFR42; assay type: cell-based, K. pneumoniae; details: KPN UFR42; for MIC: Klebsiella pneumoniae; for MIC ATB combined with Example compound: compound @8 μg/ml
Summary of the method: as §1

[7] = system: KPN 6299; assay type: cell-based, K. pneumoniae
Summary of the method: as §1

[8] = system: ECO 190317; assay type: cell-based, E. coli; details: ECO 190317; for MIC: Escherichia coli
Summary of the method: as §1

[9] = system: ECO UFR39; assay type: cell-based, E. coli; details: ECO UFR39; for MIC: Escherichia coli; for MIC ATB combined with Example compound: compound @8 μg/ml
Summary of the method: as §1

[10] = system: PAE UFR90; assay type: cell-based, P. aeruginosa; details: PAE UFR90; for MIC ATB combined with compound / MIC ATB combined with Example compound: compound @8 μg/ml; for MIC: Pseudomonas aeruginosa
Summary of the method: as §1

[11] = system: PAE 105250; assay type: cell-based, P. aeruginosa; details: PAE 105250; for MIC ATB combined with compound / MIC ATB combined with Example compound: compound @8 μg/ml; for MIC: Pseudomonas aeruginosa
Summary of the method: as §1

[12] = system: PAE UFR48; assay type: cell-based, P. aeruginosa; details: PAE UFR48; for MIC ATB combined with compound / MIC ATB combined with Example compound: compound @8 μg/ml; for MIC: Pseudomonas aeruginosa
Summary of the method: as §1

[13] = system: SAU 29213; assay type: cell-based, S. aureus; details: for MIC ATB combined with compound / MIC ATB combined with Example compound: compound @8 μg/ml; for MIC: Staphylococcus aureus
Summary of the method: as §1

[14] = substance alone, SAU 29213 (MSSA 29213), read-out: MIC
[15] = antibiotic alone, read-out: MIC ATB alone

## NC[C@H]1C=C(c2cnco2)[C@@H]2CN1C(=O)N2OS(=O)(=O)[O-].O=C(O)C(F)(F)F.[Na+] (relative stereo) [Example 1, sodium and 2,2,2-trifluoroacetate [trans-2-(azaniumylmethyl)-4-oxazol-5-yl-7-oxo-1,6-diazabicyclo[3.2.1]oct-3-en-6-yl] sulfate]
[1]; substance alone, read-out: MIC
  MIC: > 32 µg/mL
[2]; substance alone, read-out: MIC
  MIC: > 32 µg/mL
[3]; substance alone, read-out: MIC
  MIC: 0.031 µg/mL
[3]; MIC of CIP, compound @8 μg/ml
  MIC ATB combined with Example compound: <0.031 µg/mL
[4]; ATB ATM
  MIC ATB combined with compound: >32 µg/mL
[4]; ATB FEP
  MIC ATB combined with compound: 0.063 µg/mL
[4]; ATB FOS
  MIC ATB combined with compound: 32 µg/mL
[4]; ATB MEM
  MIC ATB combined with compound: 0.063 µg/mL
[4]; ATB PIP
  MIC ATB combined with compound: 0.5 µg/mL
[4]; MIC of CIP
  MIC ATB combined with Example compound: 1 µg/mL
[4]; MIC of CLI
  MIC ATB combined with Example compound: 0.063 µg/mL
[4]; MIC of CPO
  MIC ATB combined with Example compound: <=0.031 μg/mL
[4]; MIC of DAP
  MIC ATB combined with Example compound: 0.125 µg/mL
[4]; MIC of ERY
  MIC ATB combined with Example compound: 0.063 µg/mL
[4]; MIC of LZD
  MIC ATB combined with Example compound: 1 µg/mL
[4]; MIC of RIF
  MIC ATB combined with Example compound: 0.063 µg/mL
[4]; MIC of SYN
  MIC ATB combined with Example compound: 0.5 µg/mL
[4]; MIC of VAN
  MIC ATB combined with Example compound: 0.25 µg/mL
[4]; substance alone, read-out: MIC
  MIC: > 32 µg/mL
[5]; substance alone, read-out: MIC
  MIC: > 32 µg/mL
[5]; MIC of CIP, compound @8 μg/ml
  MIC ATB combined with Example compound: 16 µg/mL
[6]; substance alone, read-out: MIC
  MIC: > 32 µg/mL
[6]; MIC of CIP
  MIC ATB combined with Example compound: >32 µg/mL
[6]; MIC of CPO
  MIC ATB combined with Example compound: 16 µg/mL
[7]; MIC of CIP, compound @8 μg/ml
  MIC ATB combined with Example compound: 32 µg/mL
[8]; substance alone, read-out: MIC
  MIC: 0.031 µg/mL
[8]; MIC of CIP, compound @8 μg/ml
  MIC ATB combined with Example compound: <0.031 µg/mL
[9]; substance alone, read-out: MIC
  MIC: 0.031 µg/mL
[9]; MIC of CIP
  MIC ATB combined with Example compound: <0.031 µg/mL
[9]; MIC of CPO
  MIC ATB combined with Example compound: <0.031 µg/mL
[10]; ATB ATM
  MIC ATB combined with compound: <0.031 µg/mL
[10]; ATB FEP
  MIC ATB combined with compound: <0.031 µg/mL
[10]; ATB FOS
  MIC ATB combined with compound: <0.125 µg/mL
[10]; ATB MEM
  MIC ATB combined with compound: <0.031 µg/mL
[10]; ATB PIP
  MIC ATB combined with compound: <0.031 µg/mL
[10]; MIC of CIP
  MIC ATB combined with Example compound: <0.031 µg/mL
[10]; MIC of CPO
  MIC ATB combined with Example compound: <0.031 µg/mL
[10]; substance alone, read-out: MIC
  MIC: 0.5 µg/mL
[11]; ATB ATM
  MIC ATB combined with compound: <0.031 µg/mL
[11]; ATB FEP
  MIC ATB combined with compound: <0.031 µg/mL
[11]; ATB FOS
  MIC ATB combined with compound: 4 µg/mL
[11]; ATB MEM
  MIC ATB combined with compound: <0.031 µg/mL
[11]; ATB PIP
  MIC ATB combined with compound: <0.031 µg/mL
[11]; MIC of CIP
  MIC ATB combined with Example compound: <0.031 µg/mL
[11]; MIC of CPO
  MIC ATB combined with Example compound: <0.031 µg/mL
[11]; substance alone, read-out: MIC
  MIC: > 32 µg/mL
[12]; ATB ATM
  MIC ATB combined with compound: <0.031 µg/mL
[12]; ATB FEP
  MIC ATB combined with compound: <0.031 µg/mL
[12]; ATB FOS
  MIC ATB combined with compound: 2 µg/mL
[12]; ATB MEM
  MIC ATB combined with compound: <0.031 µg/mL
[12]; ATB PIP
  MIC ATB combined with compound: <0.031 µg/mL
[12]; MIC of CIP
  MIC ATB combined with Example compound: <0.031 µg/mL
[12]; MIC of CPO
  MIC ATB combined with Example compound: <0.031 µg/mL
[12]; substance alone, read-out: MIC
  MIC: 4 µg/mL
[13]; ATB ATM, SAU 29213
  MIC ATB combined with compound: >32 µg/mL
[13]; ATB FEP, SAU 29213
  MIC ATB combined with compound: 4 µg/mL
[13]; ATB FOS, SAU 29213
  MIC ATB combined with compound: 1 µg/mL
[13]; ATB MEM, SAU 29213
  MIC ATB combined with compound: 0.125 µg/mL
[13]; ATB PIP, SAU 29213
  MIC ATB combined with compound: 5 µg/mL
[13]; MIC of CIP, SAU 29213
  MIC ATB combined with Example compound: 0.5 µg/mL
[13]; MIC of CLI, SAU 29213
  MIC ATB combined with Example compound: 0.125 µg/mL
[13]; MIC of CPO, SAU 29213
  MIC ATB combined with Example compound: 1 µg/mL
[13]; MIC of DAP, SAU 29213
  MIC ATB combined with Example compound: 0.0078 µg/mL
[13]; MIC of ERY, SAU 29213
  MIC ATB combined with Example compound: 0.25 µg/mL
[13]; MIC of LZD, SAU 29213
  MIC ATB combined with Example compound: 2 µg/mL
[13]; MIC of RIF, SAU 29213
  MIC ATB combined with Example compound: 0.0078 µg/mL
[13]; MIC of SYN, SAU 29213
  MIC ATB combined with Example compound: 0.5 µg/mL
[13]; MIC of VAN, SAU 29213
  MIC ATB combined with Example compound: 1 µg/mL
[13]; [14]
  MIC: > 32 µg/mL

## CO/N=C(\C(=O)N[C@@H]1C(=O)N2C(C(=O)[O-])=C(C[N+]3(C)CCCC3)CS[C@H]12)c1csc(N)n1 [FEP, Cefepime]
[1]; [15]
  MIC: > 128 µg/mL
[1]; with Example 1 @8 μg/ml
  MIC ATB combined with Example 1 @8 μg/ml: >128 µg/mL
[1]; with Example 3 @8 μg/ml
  MIC ATB combined with Example 3 @8 μg/ml: >128 µg/mL
[1]; with Example 6 @8 μg/ml
  MIC ATB combined with Example 6 @8 μg/ml: <0.25 µg/mL
[1]; with Example 9 @4 μg/ml
  MIC ATB combined with Example 9 @4 μg/ml: >128 µg/mL
[1]; with Example 10 @8 μg/ml
  MIC ATB combined with Example 10 @8 μg/ml: >128 µg/mL
[1]; with Example 11 @8 μg/ml
  MIC ATB combined with Example 11 @8 μg/ml: >128 µg/mL
[1]; with Example 12 @8 μg/ml
  MIC ATB combined with Example 12 @8 μg/ml: >128 µg/mL
[1]; with Example 15 @4 μg/ml
  MIC ATB combined with Example 15 @4 μg/ml: >128 µg/mL
[2]; [15]
  MIC: 2 µg/mL
[2]; with Example 1 @8 μg/ml
  MIC ATB combined with Example 1 @8 μg/ml: 2 µg/mL
[2]; with Example 3 @8 μg/ml
  MIC ATB combined with Example 3 @8 μg/ml: 1 µg/mL
[2]; with Example 6 @8 μg/ml
  MIC ATB combined with Example 6 @8 μg/ml: <0.25 µg/mL
[2]; with Example 9 @4 μg/ml
  MIC ATB combined with Example 9 @4 μg/ml: 2 µg/mL
[2]; with Example 10 @8 μg/ml
  MIC ATB combined with Example 10 @8 μg/ml: 2 µg/mL
[2]; with Example 11 @8 μg/ml
  MIC ATB combined with Example 11 @8 μg/ml: 2 µg/mL
[2]; with Example 12 @8 μg/ml
  MIC ATB combined with Example 12 @8 μg/ml: 2 µg/mL
[2]; with Example 15 @4 μg/ml
  MIC ATB combined with Example 15 @4 μg/ml: 2 µg/mL
[3]; [15]
  MIC: 2 µg/mL
[3]; substance alone, read-out: MIC
  MIC: 2 µg/mL
[4]; [15]
  MIC: 0.063 µg/mL
[4]; substance alone, read-out: MIC
  MIC: 0.063 µg/mL
[5]; [15]
  MIC: 64 µg/mL
[5]; substance alone, read-out: MIC
  MIC: 64 µg/mL
[6]; [15]
  MIC: 128 µg/mL
[7]; Klebsiella pneumoniae, antibiotic alone, read-out: MIC ATB alone
  MIC: 128 µg/mL
[8]; [15]
  MIC: 512 µg/mL
[9]; [15]
  MIC: > 128 µg/mL
[10]; [15]
  MIC: 16 µg/mL
[10]; substance alone, read-out: MIC
  MIC: 16 µg/mL
[11]; [15]
  MIC: 8 µg/mL
[11]; substance alone, read-out: MIC
  MIC: 8 µg/mL
[12]; [15]
  MIC: 64 µg/mL
[12]; substance alone, read-out: MIC
  MIC: 64 µg/mL
[13]; antibiotic alone, SAU 29213, read-out: MIC ATB alone
  MIC: 4 µg/mL
[13]; [14]
  MIC: 4 µg/mL
